From ChEMBL document CHEMBL5608185, “Design, synthesis and evaluation of carbamate-bridged amino acid prodrugs of cycloicaritin with improved antitumor activity, aqueous solubility and phase II metabolic stability” (Eur J Med Chem, 2024)
Values after ≈ are worked out from the molar mass of the structure shown.

How the values were obtained:
[1] = Drug metabolism in rat liver microsomes at 10 uM measured upto 70 mins by HPLC-UV analysis; type: ADME, Microsome; settings: 1.167 h
[2] = Stability in rat liver microsomes assessed as parent compound remaining at 10 uM measured after 70 mins by HPLC-UV analysis; type: ADME, Microsome; settings: read-out: Stability
[3] = Octanol/water partition coefficient, logP of the compound incubated for 72 hrs by HPLC-MS/MS analysis; type: physicochemical
[4] = Chemical stability of the compound assessed as half life at pH 7.4 by HPLC analysis; type: physicochemical; settings: buffer
[5] = Stability in Sprague-Dawley rat liver homogenates assessed as half life at pH 7.4 by HPLC analysis; type: ADME, tissue-based
[6] = Chemical stability of the compound assessed as half life at pH 6.8 by HPLC analysis; type: physicochemical; settings: buffer
[7] = Drug uptake in human Caco-2 cells at 5 uM at pH 6.0 incubated for 10 mins by HPLC-MS/MS analysis; type: ADME, cell-based; settings: caco-2, pH 6, 10 min
[8] = Drug uptake in human Caco-2 cells at 5 uM incubated for 10 mins in presence of glycyl-sarcosine by HPLC-MS/MS analysis; type: ADME, cell-based; settings: caco-2, 10 min
[9] = Drug uptake in human Caco-2 cells at 5 uM at pH 7.4 incubated for 10 mins by HPLC-MS/MS analysis; type: ADME, cell-based; settings: caco-2, pH 7.4, 10 min
[10] = Chemical stability of the compound in simulated gastric fluid assessed as half life by HPLC analysis; type: ADME, physicochemical
[11] = Drug uptake in human Caco-2 cells at 5 uM incubated for 10 mins in presence of fexofenadine by HPLC-MS/MS analysis; type: ADME, cell-based; settings: caco-2, 10 min
HepG2 = test: Cytotoxicity against human HepG2 cells assessed as reduction in cell viability incubated for 72 hrs by MTT assay; type: functional, cell-based
[12] = Stability in Sprague-Dawley rat intestine homogenates assessed as half life at pH 7.4 by HPLC analysis; type: ADME, tissue-based
[13] = Chemical stability of the compound assessed as half life at pH 1.2 by HPLC analysis; type: physicochemical; settings: buffer
[14] = Chemical stability of the compound in simulated intestinal fluid assessed as half life by HPLC analysis; type: ADME, physicochemical
[15] = Stability at phase II in rat liver microsomes assessed as half life at 10 uM measured every 10 mins for 70 mins by HPLC-UV analysis; type: ADME, Microsome
[16] = Chemical stability of the compound assessed as half life at pH 4.5 by HPLC analysis; type: physicochemical; settings: buffer
4T1 [17] = test: Cytotoxicity against mouse 4T1 cells assessed as reduction in cell viability incubated for 72 hrs by MTT assay; type: functional, cell-based
[18] = Cytotoxicity against mouse 3T3 cells assessed as reduction in cell viability incubated for 72 hrs by MTT assay; type: toxicity, cell-based; settings: NIH3T3 cells
[19] = Aqueous solubility of the compound incubated for 72 hrs by shake-flask method; type: physicochemical; settings: buffer
[20] = Drug uptake in human Caco-2 cells at 5 uM incubated for 10 mins in presence of Estrone-3-sulfate by HPLC-MS/MS analysis; type: ADME, cell-based; settings: caco-2, 10 min
[21] = Drug uptake in human Caco-2 cells over 0.5 to 50 uM incubated for 10 mins by HPLC-MS/MS analysis; type: ADME, cell-based; settings: caco-2, 10 min, dose 0.5-50 µM
[22] = Selectivity ratio of cytotoxicity against human HepG2 cells to cytotoxicity against mouse 4T1 cells
[23] = Stability in Sprague-Dawley rat blood homogenates assessed as half life at pH 7.4 by HPLC analysis; type: ADME, tissue-based
[24] = Half life in Sprague-Dawley rat at 20 mg/kg, po measured upto 12 hrs by HPLC-MS/MS analysis; type: ADME, organism-based; settings: in vivo
[25] = Toxicity in BALB/c mouse assessed as effect on ALT level at 35 to 150 mg/kg, po measured after 16 days; type: organism-based; settings: in vivo, 384 h, dose 35-150 mg/kg, time 16 day
[26] = Drug uptake in human Caco-2 cells over 1 to 100 uM incubated for 10 mins by HPLC-MS/MS analysis; type: ADME, cell-based; settings: caco-2, 10 min, dose 1-100 µM
[27] = Cmax in male Sprague-Dawley rat at 20 mg/kg, po measured up to 12 hrs in presence of glycyl-sarcosine by HPLC-MS/MS analysis; type: ADME, organism-based; settings: in vivo, with glycyl-sarcosine (dose not stated)
[28] = Prodrug conversion in Sprague-Dawley rat assessed as half life of cycloicaritin metabolite at 20 mg/kg, po measured up to 12 hrs by HPLC-MS/MS analysis; type: ADME, organism-based; settings: in vivo
[29] = Prodrug conversion in Sprague-Dawley rat assessed as Cmax of cycloicaritin metabolite at 20 mg/kg, po measured up to 12 hrs by HPLC-MS/MS analysis; type: ADME, organism-based; settings: in vivo
[30] = Toxicity in BALB/c mouse assessed as effect on BUN level at 35 to 150 mg/kg, po measured after 16 days; type: organism-based; settings: in vivo, 384 h, dose 35-150 mg/kg, time 16 day
[31] = AUC (0 to t) in Sprague-Dawley rat at 20 mg/kg, po measured upto 12 hrs by HPLC-MS/MS analysis; type: ADME, organism-based; settings: in vivo
[32] = Toxicity in BALB/c mouse assessed as effect on body weight at 35 to 150 mg/kg, po measured after 16 days; type: organism-based; settings: in vivo, 384 h, dose 35-150 mg/kg, time 16 day
[33] = Toxicity in BALB/c mouse assessed as effect on CREA level at 35 to 150 mg/kg, po measured after 16 days; type: organism-based; settings: in vivo, 384 h, dose 35-150 mg/kg, time 16 day
[34] = Prodrug conversion in Sprague-Dawley rat assessed as AUC (0 to t) of cycloicaritin metabolite at 20 mg/kg, po measured up to 12 hrs by HPLC-MS/MS analysis; type: ADME, organism-based; settings: in vivo
[35] = Tmax in Sprague-Dawley rat at 20 mg/kg, po measured upto 12 hrs by HPLC-MS/MS analysis; type: ADME, organism-based; settings: in vivo
[36] = Toxicity in BALB/c mouse assessed as effect on AST level at 35 to 150 mg/kg, po measured after 16 days; type: organism-based; settings: in vivo, 384 h, dose 35-150 mg/kg, time 16 day
[37] = AUC (0 to t) in male Sprague-Dawley rat at 20 mg/kg, po measured up to 12 hrs in presence of fexofenadine by HPLC-MS/MS analysis; type: ADME, organism-based; settings: in vivo, with fexofenadine (dose not stated)
[38] = Prodrug conversion in Sprague-Dawley rat assessed as Tmax of cycloicaritin metabolite at 20 mg/kg, po measured up to 12 hrs by HPLC-MS/MS analysis; type: ADME, organism-based; settings: in vivo
[39] = Cmax in Sprague-Dawley rat at 20 mg/kg, po measured upto 12 hrs by HPLC-MS/MS analysis; type: ADME, organism-based; settings: in vivo
[40] = Cmax in male Sprague-Dawley rat at 20 mg/kg, po measured up to 12 hrs in presence of fexofenadine by HPLC-MS/MS analysis; type: ADME, organism-based; settings: in vivo, with fexofenadine (dose not stated)
[41] = AUC (0 to t) in male Sprague-Dawley rat at 20 mg/kg, po measured up to 12 hrs in presence of glycyl-sarcosine by HPLC-MS/MS analysis; type: ADME, organism-based; settings: in vivo, with glycyl-sarcosine (dose not stated)
4T1 [42] = test: Antitumor activity against mouse 4T1 cells xenografted in BALB/c mouse model assessed as reduction in tumor growth administered once daily via oral gavage and measured every two days for 16 days; type: functional, cell-based; settings: dose 35-150 mg/kg, time 16.0 day

| remaining at 1.167 h, 10 µM [2] | logP at 72 h [3] | half-life [4] | half-life [5] | half-life [6] | Drug uptake [7] | Drug uptake [8] | Drug uptake [9] | half-life [10] | Drug uptake [11] | half-life [12] | half-life [13] | half-life [14] | half-life at 10 µM [15] | half-life [16] | solubility thermodynamic at 72 h [19] | Drug uptake [20] | half-life [23] | SMILES | Activity (HepG2) | Activity (4T1 [17]) | other results |
| --- | --- | --- | --- | --- | --- | --- | --- | --- | --- | --- | --- | --- | --- | --- | --- | --- | --- | --- | --- | --- | --- |
| 27% | 3.8 | > 12 h | > 12 h | > 12 h | Active | Active | Active | > 12 h | Active | > 12 h | > 12 h | > 12 h | 0.62 h | > 12 h | 0.81 µM (≈ 0.298 µg/mL) | Active | > 12 h | COc1ccc(-c2oc3c4c(cc(O)c3c(=O)c2O)OC(C)(C)CC4)cc1 | Dose-Dependent Effect | Dose-Dependent Effect | Drug metabolism [1]: Metabolite_Detected; IC50 at 72 h [18]: > 50 µM; Drug uptake [21]: Active; Selectivity ratio [22]: 1.8 |
| 76% | 3.42 | > 12 h | 8.6 h | > 12 h | Active | Active | Not Active | > 12 h | Not Active | 8.67 h | > 12 h | > 12 h | > 1.16 h | > 12 h | 13 µM (≈ 6.84 µg/mL) | Not Active | 0.5 h | COc1ccc(-c2oc3c4c(cc(O)c3c(=O)c2OC(=O)N[C@@H](CC(C)C)C(=O)O)OC(C)(C)CC4)cc1 | Dose-Dependent Effect | Dose-Dependent Effect | half-life [24]: 5.34 h; Activity [25]: Non-Toxic; Drug uptake [26]: Not Active; Cmax [27]: 204 nM; t1/2 [28]: 6.96 h; Cmax [29]: 66.6 nM; Activity [30]: Non-Toxic; AUC(0-t) at 12 h [31]: 0.463 µM·h; Activity [32]: Non-Toxic; Activity [33]: Non-Toxic; AUCt [34]: 0.1587 µM·h; Tmax [35]: 1 h; Activity [36]: Non-Toxic; IC50 at 72 h [18]: > 100 µM; AUC(0-t) at 12 h [37]: 0.303 µM·h; Tmax [38]: 0.9 h; Cmax [39]: 156 nM; Cmax [40]: 47.4 nM; AUC(0-t) at 12 h [41]: 0.812 µM·h; Activity (4T1 [42]): Dose-Dependent Effect |
| – | – | – | – | – | – | – | – | – | – | – | – | – | – | – | 1.1 µM (≈ 0.596 µg/mL) | – | – | COc1ccc(-c2oc3c4c(cc(O)c3c(=O)c2OC(=O)N[C@@H](CCC(=O)O)C(=O)O)OC(C)(C)CC4)cc1 | – | – | – |
| 76% | 2.69 | 4.97 h | 4.62 h | > 12 h | – | – | Not Active | > 12 h | Not Active | 4.71 h | > 12 h | > 12 h | > 1.16 h | > 12 h | 11.4 µM (≈ 6.01 µg/mL) | Not Active | 0.36 h | CC[C@H](C)[C@H](NC(=O)Oc1c(-c2ccc(OC)cc2)oc2c3c(cc(O)c2c1=O)OC(C)(C)CC3)C(=O)O | – | – | Drug uptake [26]: Not Active |
